From patent US20100190794A1, “Herbicidally Active Composition” (BASF SE, priority 2007, published 2010)

Tests used:
PANDI = assay: greenhouse test, pre-emergence treatment; assay type: in vivo, Panicum dichotomiflorum; conditions: 62.5 g/ha a.s., Use Example 3
From the text: (§1) The culture containers used were plastic pots containing loamy sand with approximately 3.0% of humus as substrate. The seeds of the test plants were sown separately for each species.
(§2) For the pre-emergence treatment, the active compounds, suspended or emulsified in water, were applied directly after sowing by means of finely distributing nozzles. The containers were irrigated gently to promote germination and growth and subsequently covered with transparent plastic hoods until the plants had rooted. This cover caused uniform germination of the test plants unless this was adversely affected by the active compounds.
(§3) Depending on the species, the plants were kept at 10-25° C. and 20-35° C., respectively. The test period extended over 2 to 4 weeks. During this time, the plants were tended and their response to the individual treatments was evaluated.
(§4) Evaluation was carried out using a scale from 0 to 100. 100 means no emergence of the plants, or complete destruction of at least the above-ground parts, and 0 means no damage or normal course of growth. Good herbicidal activity is given at values of at least 70, and very good herbicidal activity is given at values of at least 85. […]
(§5) The test period extended over 20 or 21 days. During this time, the plants were tended, and their reactions to the treatment with active compound was monitored.
(§6) What was evaluated was the damage by the chemical compositions using a scale of from 0 to 100%, in comparison to the untreated control plants. […]
(§7) In the examples below, using the method of S. R. Colby (1967) “Calculating synergistic and antagonistic responses of herbicide combinations”, Weeds 15, p. 22 ff., the value E, which is expected if the activity of the individual active compounds is only additive, was calculated. […]
(§8) If the value found in experiments is higher than the value E calculated according to Colby, a synergistic effect is present.

DIGSA [1] = assay: greenhouse test, pre-emergence treatment; assay type: in vivo, Digitaria sanguinalis; conditions: for Herbicidal action in % after 21 days against DIGSA: Use Example 9
From the text: as §1, §2, §3
(§9) Evaluation was carried out using a scale from 0 to 100. 100 means no emergence of the plants, or complete destruction of at least the above-ground parts, and 0 means no damage or normal course of growth. Good herbicidal activity is given at values of at least 70, and very good herbicidal activity is given at values of at least 85.
(§10) The respective stated components A and B, and if appropriate, C were formulated as a 5% by weight or 10% by weight strength emulsion concentrate or a commercially available formulation of component B was used and, with addition of the amount of solvent system, introduced into the spray liquor used for applying the active compound. In the examples, the solvent used was water.
as §5
(§11) What was evaluated was the damage by the chemical compositions using a scale of from 0 to 100%, in comparison to the untreated control plants. 0 means no damage, and 100 means complete destruction of the plants.
(§12) In the examples below, using the method of S. R. Colby (1967) “Calculating synergistic and antagonistic responses of herbicide combinations”, Weeds 15, p. 22 ff., the value E, which is expected if the activity of the individual active compounds is only additive, was calculated.
(§13) where X=percent activity using active compound A at an application rate a; Y=percent activity using active compound B at an application rate b; E=expected activity (in %) by A+B at application rates a+b.
as §8

SETVI [2] = assay: greenhouse test, post-emergence treatment; assay type: in vivo, Setaria viridis
Protocol: as §1
(§14) For the post-emergence treatment, the test plants were grown to a plant height of from 3 to 15 cm, depending on the plant habit, and only then treated with the active compounds which had been suspended or emulsified in water. To this end, the test plants were either sown directly and grown in the same containers, or they were first grown separately as seedlings and transplanted into the test containers a few days prior to treatment.
as §3, §9, §10, §5, §11, §12, §13, §8

DIGSA [3] = assay: greenhouse test, post-emergence treatment; assay type: in vivo, Digitaria sanguinalis; conditions: Use Example 18
Protocol: as §1, §14, §3, §4, §5, §6, §7, §8

ECHCG = assay: greenhouse test, pre-emergence treatment; assay type: in vivo, Echinochloa crus-galli; conditions: Use Example 2
From the text: as §1, §2, §3, §9, §10, §5, §11, §12, §13, §8

SETVI [4] = assay: greenhouse test, pre-emergence treatment; assay type: in vivo, Setaria viridis; conditions: 125 g/ha a.s., Use Example 11
From the text: as §1, §2
Depending on the species, the plants were kept at 10-25° C. and 20-35° C., respectively. […] During this time, the plants were tended and their response to the individual treatments was evaluated. […]
as §5, §6, §7

LOLMU = assay: greenhouse test, post-emergence treatment; assay type: in vivo, Lolium multiflorum; conditions: Use Example 17
Protocol: as §1, §14, §3, §9, §10, §5, §11, §12, §13, §8

BRAPL = assay: greenhouse test, pre-emergence treatment; assay type: in vivo, Brachiaria plantaginea
From the text: as §1, §2, §3, §9, §10, §5, §11, §12, §13, §8

SETFA = assay: greenhouse test, pre-emergence treatment; assay type: in vivo, Setaria faberi
From the text: as §1, §2, §3, §9, §10, §5, §11, §12, §13, §8

ALOMY = assay: greenhouse test, post-emergence treatment; assay type: in vivo, Alopecurus myosuroides; conditions: Use Example 17
Protocol: as §1, §14, §3, §9, §10, §5, §11, §12, §13, §8

AVEFA = assay: greenhouse test, pre-emergence treatment; assay type: in vivo, Avena fatua; conditions: Use Example 6
From the text: as §1, §2, §3, §4, §5, §6, §7, §8

LAMPU = assay: greenhouse test, pre-emergence treatment; assay type: in vivo, Lamium purpureum; conditions: 125 g/ha a.s., Use Example 11
From the text: as §1, §2, §3, §9, §10, §5, §11, §12, §13, §8

MATIN = assay: greenhouse test, pre-emergence treatment; assay type: in vivo, Matricaria inodora; conditions: Use Example 2
From the text: as §1, §2, §3, §9, §10, §5, §11, §12, §13, §8

SMILES: CN1C(=O)C(C)(Cc2ccccc2)N(C)C(=O)C1=Cc1ccccc1C#N (stereo not drawn) [Example 20, 2-[5-Benzyl-1,4,5-trimethyl-3,6-dioxopiperazin-2-ylidenemethyl]benzo-nitrile]
- Herbicidal action in % after 21 days against PANDI (PANDI): 95%
- Herbicidal action in % after 20 days against DIGSA (DIGSA [1]; 125 g/ha a.s., Use Example 5): 90%
- Herbicidal action in % after 21 days against DIGSA (DIGSA [1]; 125 g/ha a.s.): 90%
- Herbicidal action in % after 20 days against DIGSA (DIGSA [1]; 125 g/ha a.s., Use Example 14): 90%
- Herbicidal action in % after 20 days against DIGSA (DIGSA [1]; 250 g/ha a.s., Use Example 5): 100%
- Herbicidal action in % after 21 days against DIGSA (DIGSA [1]; 250 g/ha a.s.): 100%
- Herbicidal action in % after 20 days against SETVI (SETVI [2]; 62.5 g/ha a.s., Use Example 18): 60%
- Herbicidal action in % after 20 days against SETVI (SETVI [2]; 125 g/ha a.s., Use Example 17): 70%
- Herbicidal action in % after 20 days against SETVI (SETVI [2]; 125 g/ha a.s., Use Example 18): 70%
- Herbicidal action in % after 20 days against SETVI (SETVI [2]; 250 g/ha a.s., Use Example 17): 80%
- Herbicidal action in % after 20 days against DIGSA (DIGSA [3]; 62.5 g/ha a.s.): 45%
- Herbicidal action in % after 20 days against DIGSA (DIGSA [3]; 125 g/ha a.s.): 70%
- Herbicidal action in % after 20 days against ECHCG (ECHCG; 62.5 g/ha a.s.): 70%
- Herbicidal action in % after 20 days against ECHCG (ECHCG; 125 g/ha a.s.): 95%
- Herbicidal action in % after 20 days against ECHCG (ECHCG; 250 g/ha a.s.): 100%
- Herbicidal action in % after 21 days against SETVI (SETVI [4]): 80%
- Herbicidal action in % after 20 days against LOLMU (LOLMU; 125 g/ha a.s.): 15%
- Herbicidal action in % after 20 days against LOLMU (LOLMU; 250 g/ha a.s.): 35%
- Herbicidal action in % after 21 days against BRAPL (BRAPL; 31.25 g/ha a.s., Use Example 8): 20%
- Herbicidal action in % after 20 days against BRAPL (BRAPL; 125 g/ha a.s., Use Example 5): 70%
- Herbicidal action in % after 21 days against BRAPL (BRAPL; 125 g/ha a.s., Use Example 9): 80%
- Herbicidal action in % after 20 days against BRAPL (BRAPL; 125 g/ha a.s., Use Example 12): 55%
- Herbicidal action in % after 20 days against BRAPL (BRAPL; 250 g/ha a.s., Use Example 5): 85%
- Herbicidal action in % after 21 days against BRAPL (BRAPL; 250 g/ha a.s., Use Example 9): 95%
- Herbicidal action in % after 20 days against BRAPL (BRAPL; 250 g/ha a.s., Use Example 12): 55%
- Herbicidal action in % after 20 days against BRAPL (BRAPL; 250 g/ha a.s., Use Example 16): 85%
- Herbicidal action in % after 20 days against SETFA (SETFA; 125 g/ha a.s., Use Example 12): 45%
- Herbicidal action in % after 20 days against SETFA (SETFA; 125 g/ha a.s., Use Example 14): 95%
- Herbicidal action in % after 20 days against SETFA (SETFA; 250 g/ha a.s., Use Example 12): 80%
- Herbicidal action in % after 20 days against ALOMY (ALOMY; 125 g/ha a.s.): 40%
- Herbicidal action in % after 20 days against ALOMY (ALOMY; 250 g/ha a.s.): 70%
- Herbicidal action in % after 20 days against AVEFA (AVEFA; 250 g/ha a.s.): 20%
- Herbicidal action in % after 20 days against AVEFA (AVEFA; 500 g/ha a.s.): 40%
- Herbicidal action in % after 21 days against LAMPU (LAMPU): 75%
- Herbicidal action in % after 20 days against MATIN (MATIN; 62.5 g/ha a.s.): 0%
- Herbicidal action in % after 20 days against MATIN (MATIN; 125 g/ha a.s.): 30%
